# Data published in patent US5747235A, “Silver halide light sensitive emulsion layer having enhanced photographic sensitivity” (Eastman Kodak Company, priority 1996, dated 1998).
# Structures can show the parent of a compound that is named as a salt. Where two headings read alike, the source gives them in different places.
# How the values were obtained:
# [1] = Example 15: photographic sensitivity and fog, color format, blue sensitized emulsion T-2; conditions: for Photographic Sensitivity SWR2B: control=100
# Description: (§1) The AgBrI tabular silver halide emulsion T-2 from Example 3 was optimally chemically and spectrally sensitized by adding NaSCN, 1.07 mmole of the blue sensitizing dye D-I per mole of silver, Na3 Au(S2 O3)2 ·2H2 O, Na2 S2 O3 ·5H2 O, and a benzothiazolium finish modifier and then subjecting the emulsion to a heat cycle to 65° C. The hydroxybenzene, 2,4-disulfocatechcol (HB3) at a concentration of 13×10^-3 mole/mole Ag was added to the emulsion melt before the start of the chemical sensitization procedure. This chemically sensitized emulsion was then used to prepare the experimental coating variations given in Table X. For all the variations in Table X, the antifoggant and stabilizer tetraazaindene (TAI) was added to the emulsion melt in an amount of 1.75 g/mole Ag before any further addenda. The fragmentable two-electron donors S-3, S-9, S-6, or S-8 were then added to the emulsion melt.
# (§2) The melts were prepared for coating by adding additional water, deionized gelatin and coating surfactants. Coatings were prepared by combining the emulsion melts with a melt containing deionized gelatin and an aqueous dispersion of the cyan-forming color coupler CC-1 and coating the resulting mixture on acetate support. The final coatings contained Ag at 0.81 g/m^2, coupler at 1.61 g/m^2, and gelatin at 3.23 g/m^2. The coatings were overcoated with a protective layer containing gelatin at 1.08 g/m^2, coating surfactants, and a bisvinylsulfonylmethyl ether as a gelatin hardening agent. The structure of the color coupler CC-1 is given below: [drawing 120]
# (§3) For photographic evaluation, each of the coating strips was exposed for 0.01 sec to a 3000K color temperature tungsten lamp filtered to give an effective color temperature of 5500K and further filtered through a Kodak Wratten filter number 2B, and a step wedge ranging in density from 0 to 4 density units in 0.20 density steps. This exposure gives light absorbed mainly by the blue sensitizing dye. The exposed film strips were developed for 31/4 minutes in Kodak C-41 color developer. SWR2B, relative sensitivity for this filtered exposure, was evaluated at a cyan density of 0.15 units above fog.
# The AgBrl tabular emulsion T-2 as described in Example 3 was sensitized as described in Example 10 except that the hydroxybenzene HB3 was added at the completion of the chemical sensitization procedure. For all the variations in Table XV the antifoggant and stabilizer tetraaazindene (TAI) was added to the emulsion melt in an amount of 1.75 g/mole Ag before any further addenda. The fragmentable electron donor compounds S-19, PMT-3, and PMT-4 were then added to the emulsion melt. The melts were then coated and tested as described in Example 10.
# [2] = oxidation potential E1 by cyclic voltammetry; format: physicochemical
# Procedure, shortened: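 Compound in 80:20 (v/v) acetonitrile/water with 0.1M lithium perchlorate, nitrogen-purged 10 minutes. Glassy carbon working, platinum wire counter and saturated calomel reference electrodes; 25° C, sweep rate 0.1 V/sec. E1 is the voltammetric peak potential vs. SCE.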
# [3] = Example 10: photographic sensitivity and fog, color format, blue sensitized emulsion T-2; conditions: for Photographic Sensitivity SWR2B: control=100
# Description: The hydroxybenzene, 2,4-disulfocatechcol (HB3) at a concentration of 13×10^-3 mole/mole Ag was added to the emulsion melt before the start of the chemical sensitization procedure. […] The fragmentable two-electron donors S-3, S-9, S-6, or S-8 were then added to the emulsion melt.
# The melts were prepared for coating by adding additional water, deionized gelatin and coating surfactants. Coatings were prepared by combining the emulsion melts with a melt containing deionized gelatin and an aqueous dispersion of the cyan-forming color coupler CC-1 and coating the resulting mixture on acetate support. […] The structure of the color coupler CC-1 is given below: [drawing 120]
# as §3
# [4] = Example 16: photographic sensitivity and fog, color format, blue sensitized emulsion T-2
# Description: as §1, §2, §3
# The AgBrl tabular emulsion T-2 as described in Example 3 was sensitized as described in Example 10 except that the hydroxybenzene HB3 was added at the completion of the chemical sensitization procedure. For all the variations in Table XVI, the antifoggant and stabilizer tetraazaindene (TAI), was added to the emulsion melt in an amount of 1.75 g/mole Ag before any further addenda. The fragmentable two-electron donor compounds TU-2 and TU-3 were then added to the emulsion melt. The melts were then coated and tested as described in Example 10.
# [5] = as above; conditions: control=100
# [6] = known acceptors used in flash photolysis; cited from earlier work
# [7] = fragmentation rate constant kfr by laser flash photolysis; format: physicochemical; conditions: Table H; model compound, A and L replaced by alkyl
# Procedure, shortened: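 DCA excited by laser in presence of biphenyl and ca. 10^-2 M donor generates X-Y radical cation; its decay was monitored at mostly 470-530 nm. Run in acetonitrile with 20% water, mostly at room temperature, some rates extrapolated from temperature dependence; oxygen purging used for decays below 10^6 s^-1.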
# [8] = oxidation potential E2 of radical X by laser flash photolysis; format: physicochemical; conditions: Table H; model compound, A and L replaced by alkyl
# Procedure, shortened: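 Radical X· generated by fragmentation of X-Y·+, formed via 410 nm laser-excited cyanoanthracene (ca. 2×10^-5–10^-4 M) with biphenyl (ca. 0.1 M) cosensitiser and X-Y (ca. 10^-3 M) in acetonitrile or 80:20 acetonitrile/water. E2 bracketed by observing second-acceptor reduction (DCA −0.91 V, TriCA −0.67 V, TCA −0.44 V) by transient absorption near 705–715 nm.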
# [9] = Example 2: photographic speed and fog, 365 nm exposure, acids vs corresponding esters, emulsion T-1; design: Fog: unit not given here; conditions: for Fog / S365: undyed; for S365: control=100
# Description: This chemically sensitized emulsion was then used to prepare the experimental coating variations indicated in Table I. All of the experimental coating variations in Table I contained the hydroxybenzene 2,4-disulfocatechol (HB3) at a concentration of 13 mmole/mole Ag, added to the melt before the addition of any further addenda. The fragmentable electron donor compounds as indicated in Table I were added from an aqueous potassium bromide solution, or from a methanol solution, before additional water, gelatin, and surfactant were added to the emulsion melts.
# For photographic evaluation, each of the coating strips was exposed for 0.1 sec to a 365 nm emission line of a Hg lamp filtered through a Kodak Wratten filter number 18A and a step wedge ranging in density from 0 to 4 density units in 0.2 density steps. The exposed film strips were developed for 6 min in Kodak Rapid X-ray Developer (KRX). S365, relative sensitivity at 365 nm, was evaluated at a density of 0.2 units above fog.
# The coatings described in Table II all contain the hydroxybenzene, 2,4-disulfocatechol (HB3) at a concentration of 13 mmole/mole Ag, added to the melt before any further addenda.
# [10] = cited from earlier work
compound,measurement,setting,value
CC(C(=O)O)N(CC(=O)O)c1ccc(S(=O)(=O)Nc2cccc(-n3nnnc3S)c2)cc1 (stereo not shown) [PMT-4],Fog,[1]; 0.14 x10^-6 mol/mol Ag,0.06
same,Photographic Sensitivity SWR2B,[1]; 0.14 x10^-6 mol/mol Ag,115
same,Fog,[1]; 0.45 x10^-6 mol/mol Ag,0.07
same,Photographic Sensitivity SWR2B,[1]; 0.45 x10^-6 mol/mol Ag,120
"CCSCCN(CC(=O)[O-])c1ccc(C)cc1.[Na+] [Compound S-6, N-(4-Methylphenyl)-N-(2-ethylthio-ethyl)glycine sodium salt]",E1 (V),[2]; Table X,0.45 V
same,Fog,[3]; 0.022 x10^-3 mol/mol Ag,0.14
same,Photographic Sensitivity SWR2B,[3]; 0.022 x10^-3 mol/mol Ag,120
same,Fog,[3]; 0.07 x10^-3 mol/mol Ag,0.21
same,Photographic Sensitivity SWR2B,[3]; 0.07 x10^-3 mol/mol Ag,126
CC(C(=O)O)N(CCC(=O)N(C)CCN(C)C(=S)N(C)C)c1ccc(C=O)cc1 (stereo not shown) [TU-3],Fog,[4]; 14 x10^-6 mol/molAg,0.09
same,Fog,[4]; 45 x10^-6 mol/molAg,0.09
same,Fog,[4]; 140 x10^-6 mol/molAg,0.10
same,Photographic Sensitivity SWR3B,[5]; 14 x10^-6 mol/molAg,145
same,Photographic Sensitivity SWR3B,[5]; 45 x10^-6 mol/molAg,155
same,Photographic Sensitivity SWR3B,[5]; 140 x10^-6 mol/molAg,166
O=C1C=CC(=O)C(Cl)=C1 [chlorobenzoquinone],reduction potential (Ered),[6],-0.34 V
CC(C(=O)O)N(CC(=O)O)c1ccc(S(=O)(=O)N2CCSCC2)cc1 (stereo not shown) [Compound S-19],Fog,[1]; 4.4 x10^-6 mol/mol Ag,0.06
same,Photographic Sensitivity SWR2B,[1]; 4.4 x10^-6 mol/mol Ag,115
same,Fog,[1]; 8.8 x10^-6 mol/mol Ag,0.08
same,Photographic Sensitivity SWR2B,[1]; 8.8 x10^-6 mol/mol Ag,112
"CCSCCN(c1ccc(OC)cc1)C(C)C(=O)O (stereo not shown) [Compound S-1, sodium salt]",E1 (V) for XY moiety,"[2]; Table H, model compound, A and L replaced by alkyl",0.22 V
same,E1 (V),[2]; Table II,0.35 V
same,kfr (s^-1) for XY moiety,[7],1.1e+06 s⁻¹
same,E2 (V) for XY moiety,[8],< -0.9 V
same,Fog,[9]; 0.00022 x10^-3 mole/mole Ag,0.06
same,S365,[9]; 0.00022 x10^-3 mole/mole Ag,107
same,Fog,[9]; 0.00070 x10^-3 mole/mole Ag,0.28
same,S365,[9]; 0.00070 x10^-3 mole/mole Ag,89
same,Fog,[9]; 0.00220 x10^-3 mole/mole Ag,0.82
same,speed and fog change,[9]; undyed T-1 emulsion,both speed and fog increases
CC(C(=O)O)N(CCC(=O)N(C)CCN(C)C(=S)N(C)C)c1ccccc1 (stereo not shown) [TU-2],Fog,[4]; 0.45 x10^-6 mol/molAg,0.08
same,Fog,[4]; 1.4 x10^-6 mol/molAg,0.09
same,Fog,[4]; 4.5 x10^-6 mol/molAg,0.11
same,Photographic Sensitivity SWR3B,[5]; 0.45 x10^-6 mol/molAg,118
same,Photographic Sensitivity SWR3B,[5]; 1.4 x10^-6 mol/molAg,135
same,Photographic Sensitivity SWR3B,[5]; 4.5 x10^-6 mol/molAg,159
B [borohydride],oxidation potential,[10]; literature,-0.48 V vs SCE
"N#Cc1c2ccccc2c(C#N)c2ccccc12 [DCA, 9,10-dicyanoanthracene]",reduction potential (Ered),[6],-0.91 V
CC(C(=O)O)N(CCC(=O)Nc1cccc(-n2nnnc2S)c1)c1ccc(C=O)cc1 (stereo not shown) [PMT-3],Fog,[1]; 0.045 x10^-6 mol/mol Ag,0.07
same,Photographic Sensitivity SWR2B,[1]; 0.045 x10^-6 mol/mol Ag,151
same,Fog,[1]; 0.14 x10^-6 mol/mol Ag,0.08
same,Photographic Sensitivity SWR2B,[1]; 0.14 x10^-6 mol/mol Ag,151
same,Fog,[1]; 0.45 x10^-6 mol/mol Ag,0.07
same,Photographic Sensitivity SWR2B,[1]; 0.45 x10^-6 mol/mol Ag,141
"N#Cc1ccc2c(C#N)c3ccccc3c(C#N)c2c1 [TriCA, 2,9,10-tricyanoanthracene]",reduction potential (Ered),[6],-0.67 V
"O=C1C=C(Cl)C(=O)C=C1Cl [2,5-dichlorobenzoquinone]",reduction potential (Ered),[6],-0.18 V
"N#Cc1ccc2c(C#N)c3cc(C#N)ccc3c(C#N)c2c1 [TCA, tetracyanoanthracene]",reduction potential (Ered),[6],-0.44 V
[Cl][Sn][Cl] [SnCl2],oxidation potential,"[10]; SnCl2, CRC Handbook",~ -0.10 V
"O=C1C(Cl)=C(Cl)C(=O)C(Cl)=C1Cl [2,3,5,6-tetrachlorobenzoquinone]",reduction potential (Ered),[6],0.00 V
